Assays:
Escherichia coli [1] = assay: Antimicrobial activity against Escherichia coli ATCC 25922 after 24 hrs by NCCLS-protocol based assay; format: functional; conditions: ATCC 25922, 24 h
Escherichia coli [2] = assay: Antimicrobial activity against Escherichia coli UB1005 after 24 hrs by NCCLS-protocol based assay; format: functional; conditions: UB1005, 24 h
Escherichia coli [3] = assay: Antimicrobial activity against Escherichia coli 078 after 24 hrs by NCCLS-protocol based assay; format: functional; conditions: Escherichia coli, 078, 24 h
Escherichia coli [4] = assay: Antimicrobial activity against Escherichia coli K88 after 24 hrs by NCCLS-protocol based assay; format: functional; conditions: K88, 24 h
Escherichia coli [5] = assay: Antimicrobial activity against Escherichia coli K99 after 24 hrs by NCCLS-protocol based assay; format: functional; conditions: K99, 24 h
Pseudomonas aeruginosa [6] = assay: Antimicrobial activity against Pseudomonas aeruginosa ATCC 27853 after 24 hrs by NCCLS-protocol based assay; format: functional; conditions: ATCC 27853, 24 h
Pseudomonas aeruginosa [7] = assay: Antimicrobial activity against Pseudomonas aeruginosa PAO1 after 24 hrs by NCCLS-protocol based assay; format: functional; conditions: PAO1, 24 h
Pseudomonas aeruginosa [8] = assay: Antimicrobial activity against Pseudomonas aeruginosa CICC 21630 clinical isolates after 24 hrs by NCCLS-protocol based assay; format: functional; conditions: CICC 21630, 24 h
Pseudomonas aeruginosa [9] = assay: Antimicrobial activity against Pseudomonas aeruginosa 26305 clinical isolates after 24 hrs by NCCLS-protocol based assay; format: functional; conditions: Pseudomonas aeruginosa, 26305, 24 h
Pseudomonas aeruginosa [10] = assay: Antimicrobial activity against Pseudomonas aeruginosa CICC 21625 clinical isolates after 24 hrs by NCCLS-protocol based assay; format: functional; conditions: CICC 21625, 24 h
Pseudomonas aeruginosa [11] = assay: Antimicrobial activity against Pseudomonas aeruginosa 25349 clinical isolates after 24 hrs by NCCLS-protocol based assay; format: functional; conditions: Pseudomonas aeruginosa, 25349, 24 h
Salmonella typhimurium [12] = assay: Antimicrobial activity against Salmonella typhimurium ATCC 14028 after 24 hrs by NCCLS-protocol based assay; format: functional, Salmonella enterica subsp. enterica serovar Typhimurium; conditions: Salmonella enterica, ATCC 14028, 24 h
Salmonella typhimurium [13] = assay: Antimicrobial activity against Salmonella typhimurium C7731 after 24 hrs by NCCLS-protocol based assay; format: functional, Salmonella enterica subsp. enterica serovar Typhimurium; conditions: Salmonella enterica, C7731, 24 h
[14] = Antimicrobial activity against Salmonella pullorum C7913 after 24 hrs by NCCLS-protocol based assay; format: functional, Salmonella enterica subsp. enterica serovar Pullorum; conditions: Salmonella enterica, C7913, 24 h
Acinetobacter baumannii [15] = assay: Antimicrobial activity against Acinetobacter baumannii after 24 hrs by NCCLS-protocol based assay; format: functional
Klebsiella pneumoniae [16] = assay: Antimicrobial activity against Klebsiella pneumoniae after 24 hrs by NCCLS-protocol based assay; format: functional
Escherichia coli [17] = assay: Bactericidal activity against Escherichia coli ATCC 25922 incubated for 4 hrs followed by culture spread on agar plates and cultured overnight; format: functional; conditions: ATCC 25922, 4 h, read-out: MBC>99.9
Escherichia coli [18] = assay: Bactericidal activity against Escherichia coli ATCC 25922 incubated for 4 hrs followed by culture spread on agar plates and cultured overnight in presence of NaCl; format: functional; conditions: ATCC 25922, 4 h, read-out: MBC>99.9
Escherichia coli [19] = assay: Bactericidal activity against Escherichia coli ATCC 25922 incubated for 4 hrs followed by culture spread on agar plates and cultured overnight in presence of KCl; format: functional; conditions: ATCC 25922, 4 h, read-out: MBC>99.9
Escherichia coli [20] = assay: Bactericidal activity against Escherichia coli ATCC 25922 incubated for 4 hrs followed by culture spread on agar plates and cultured overnight in presence of CaCl2; format: functional; conditions: ATCC 25922, 4 h, read-out: MBC>99.9
Escherichia coli [21] = assay: Bactericidal activity against Escherichia coli ATCC 25922 incubated for 4 hrs followed by culture spread on agar plates and cultured overnight in presence of ZnCl2; format: functional; conditions: ATCC 25922, 4 h, read-out: MBC>99.9
Escherichia coli [22] = assay: Bactericidal activity against Escherichia coli ATCC 25922 incubated for 4 hrs followed by culture spread on agar plates and cultured overnight in presence of FeCl3; format: functional; conditions: ATCC 25922, 4 h, read-out: MBC>99.9
Escherichia coli [23] = assay: Bactericidal activity against Escherichia coli ATCC 25922 incubated for 4 hrs followed by culture spread on agar plates and cultured overnight in presence of NH4Cl; format: functional; conditions: ATCC 25922, 4 h, read-out: MBC>99.9
Escherichia coli [24] = assay: Bactericidal activity against Escherichia coli ATCC 25922 incubated for 4 hrs followed by culture spread on agar plates and cultured overnight in presence of MgCl2; format: functional; conditions: ATCC 25922, 4 h, read-out: MBC>99.9
Escherichia coli [25] = assay: Bactericidal activity against Escherichia coli ATCC 25922 incubated for 4 hrs followed by culture spread on agar plates and cultured overnight in presence of 50% serum albumin; format: functional; conditions: ATCC 25922, 4 h, read-out: MBC>99.9
Escherichia coli [26] = assay: Bactericidal activity against Escherichia coli ATCC 25922 incubated for 4 hrs followed by culture spread on agar plates and cultured overnight in presence of 25% serum albumin; format: functional; conditions: ATCC 25922, 4 h, read-out: MBC>99.9
Escherichia coli [27] = assay: Bactericidal activity against Escherichia coli ATCC 25922 incubated for 4 hrs followed by culture spread on agar plates and cultured overnight in presence of 12.5% serum albumin; format: functional; conditions: ATCC 25922, 4 h, read-out: MBC>99.9
Escherichia coli [28] = assay: Bactericidal activity against Escherichia coli UB1005 incubated for 4 hrs followed by culture spread on agar plates and cultured overnight; format: functional; conditions: UB1005, 4 h, read-out: MBC>99.9
Escherichia coli [29] = assay: Bactericidal activity against Escherichia coli 078 incubated for 4 hrs followed by culture spread on agar plates and cultured overnight; format: functional; conditions: Escherichia coli, 078, 4 h; read-out: MBC>99.9
Escherichia coli [30] = assay: Bactericidal activity against Escherichia coli K88 incubated for 4 hrs followed by culture spread on agar plates and cultured overnight; format: functional; conditions: K88, 4 h, read-out: MBC>99.9
Escherichia coli [31] = assay: Bactericidal activity against Escherichia coli K99 incubated for 4 hrs followed by culture spread on agar plates and cultured overnight; format: functional; conditions: K99, 4 h, read-out: MBC>99.9
Pseudomonas aeruginosa [32] = assay: Bactericidal activity against Pseudomonas aeruginosa ATCC 27853 incubated for 4 hrs followed by culture spread on agar plates and cultured overnight; format: functional; conditions: ATCC 27853, 4 h, read-out: MBC>99.9
Pseudomonas aeruginosa [33] = assay: Bactericidal activity against Pseudomonas aeruginosa PAO1 incubated for 4 hrs followed by culture spread on agar plates and cultured overnight; format: functional; conditions: PAO1, 4 h, read-out: MBC>99.9
Pseudomonas aeruginosa [34] = assay: Bactericidal activity against Pseudomonas aeruginosa CICC 21630 clinical isolates incubated for 4 hrs followed by culture spread on agar plates and cultured overnight; format: functional; conditions: CICC 21630, 4 h, read-out: MBC>99.9
Pseudomonas aeruginosa [35] = assay: Bactericidal activity against Pseudomonas aeruginosa 26305 clinical isolates incubated for 4 hrs followed by culture spread on agar plates and cultured overnight; format: functional; conditions: Pseudomonas aeruginosa, 26305, 4 h; read-out: MBC>99.9
Pseudomonas aeruginosa [36] = assay: Bactericidal activity against Pseudomonas aeruginosa CICC 21625 clinical isolates incubated for 4 hrs followed by culture spread on agar plates and cultured overnight; format: functional; conditions: CICC 21625, 4 h, read-out: MBC>99.9
Pseudomonas aeruginosa [37] = assay: Bactericidal activity against Pseudomonas aeruginosa 25349 clinical isolates incubated for 4 hrs followed by culture spread on agar plates and cultured overnight; format: functional; conditions: Pseudomonas aeruginosa, 25349, 4 h; read-out: MBC>99.9
Salmonella typhimurium [38] = assay: Bactericidal activity against Salmonella typhimurium ATCC 14028 incubated for 4 hrs followed by culture spread on agar plates and cultured overnight; format: functional, Salmonella enterica subsp. enterica serovar Typhimurium; conditions: Salmonella enterica, ATCC 14028, 4 h; read-out: MBC>99.9
Salmonella typhimurium [39] = assay: Bactericidal activity against Salmonella typhimurium C7731 incubated for 4 hrs followed by culture spread on agar plates and cultured overnight; format: functional, Salmonella enterica subsp. enterica serovar Typhimurium; conditions: Salmonella enterica, C7731, 4 h; read-out: MBC>99.9
[40] = Bactericidal activity against Salmonella pullorum C7913 incubated for 4 hrs followed by culture spread on agar plates and cultured overnight; format: functional, Salmonella enterica subsp. enterica serovar Pullorum; conditions: Salmonella enterica, C7913, 4 h; read-out: MBC>99.9
Acinetobacter baumannii [41] = assay: Bactericidal activity against Acinetobacter baumannii incubated for 4 hrs followed by culture spread on agar plates and cultured overnight; format: functional; conditions: read-out: MBC>99.9
Klebsiella pneumoniae [42] = assay: Bactericidal activity against Klebsiella pneumoniae incubated for 4 hrs followed by culture spread on agar plates and cultured overnight; format: functional; conditions: read-out: MBC>99.9

With H-IKPIIKPIIKPIIKPIIKPIIKPI-NH2 the MIC95 (Escherichia coli [1]) was 16 µM, the MIC95 (Escherichia coli [2]) was 16 µM and the MIC95 (Escherichia coli [3]) was 64 µM. For the same substance, the MIC95 (Escherichia coli [4]) was 4 µM, the MIC95 (Escherichia coli [5]) was 8 µM and the MIC95 (Pseudomonas aeruginosa [6]) was greater than 64 µM. For the same substance, the MIC95 (Pseudomonas aeruginosa [7]) was greater than 64 µM, the MIC95 (Pseudomonas aeruginosa [8]) was greater than 64 µM and the MIC95 (Pseudomonas aeruginosa [9]) was greater than 64 µM. The MIC95 (Pseudomonas aeruginosa [10]) was greater than 64 µM, the MIC95 (Pseudomonas aeruginosa [11]) was greater than 64 µM and the MIC95 (Salmonella typhimurium [12]) was 64 µM. The MIC95 (Salmonella typhimurium [13]) was greater than 64 µM, the MIC95 [14] was 64 µM and the MIC95 (Acinetobacter baumannii [15]) was 16 µM. The MIC95 (Klebsiella pneumoniae [16]) was greater than 64 µM, the MBC (Escherichia coli [17]) was 32 µM and the MBC (Escherichia coli [18]) was greater than 128 µM. For the same substance, the MBC (Escherichia coli [19]) was greater than 128 µM, the MBC (Escherichia coli [20]) was greater than 128 µM and the MBC (Escherichia coli [21]) was greater than 128 µM. It also gave an MBC (Escherichia coli [22]) greater than 128 µM, an MBC (Escherichia coli [23]) greater than 128 µM and an MBC (Escherichia coli [24]) greater than 128 µM. The MBC (Escherichia coli [25]) was greater than 128 µM, the MBC (Escherichia coli [26]) was greater than 128 µM and the MBC (Escherichia coli [27]) was greater than 128 µM. For the same substance, the MBC (Escherichia coli [28]) was 32 µM, the MBC (Escherichia coli [29]) was greater than 64 µM and the MBC (Escherichia coli [30]) was 8 µM. It also gave an MBC (Escherichia coli [31]) of 16 µM, an MBC (Pseudomonas aeruginosa [32]) greater than 64 µM and an MBC (Pseudomonas aeruginosa [33]) greater than 64 µM. The MBC (Pseudomonas aeruginosa [34]) was greater than 64 µM, the MBC (Pseudomonas aeruginosa [35]) was greater than 64 µM and the MBC (Pseudomonas aeruginosa [36]) was greater than 64 µM. It also gave an MBC (Pseudomonas aeruginosa [37]) greater than 64 µM, an MBC (Salmonella typhimurium [38]) greater than 64 µM and an MBC (Salmonella typhimurium [39]) greater than 64 µM. For the same substance, the MBC [40] was greater than 64 µM, the MBC (Acinetobacter baumannii [41]) was 16 µM and the MBC (Klebsiella pneumoniae [42]) was greater than 64 µM.

From ChEMBL document CHEMBL4316596, “Antimicrobial Peptides with High Proteolytic Resistance for Combating Gram-Negative Bacteria” (J Med Chem, 2019)
